Experimental data reported in patent US8476043B2, “Inhibitors for the soluble epoxide hydrolase” (The Regents of the University of California, priority 2004, dated 2013).
Converted amounts (≈) assume the structure as drawn. Read-outs that look alike come from different tables or passages of the source. One block for each compound: values may come before it.

Legend:
human sEH [1] = target: T1, human sEH (Homo sapiens, UniProt P34913); assay: sEH inhibition, spectrometric assay with racemic 4-nitrophenyl-trans-2,3-epoxy-3-phenylpropyl carbonate as substrate; assay type: biochemical
T1 construct: made in house
T1 sequence (P34913 1-555): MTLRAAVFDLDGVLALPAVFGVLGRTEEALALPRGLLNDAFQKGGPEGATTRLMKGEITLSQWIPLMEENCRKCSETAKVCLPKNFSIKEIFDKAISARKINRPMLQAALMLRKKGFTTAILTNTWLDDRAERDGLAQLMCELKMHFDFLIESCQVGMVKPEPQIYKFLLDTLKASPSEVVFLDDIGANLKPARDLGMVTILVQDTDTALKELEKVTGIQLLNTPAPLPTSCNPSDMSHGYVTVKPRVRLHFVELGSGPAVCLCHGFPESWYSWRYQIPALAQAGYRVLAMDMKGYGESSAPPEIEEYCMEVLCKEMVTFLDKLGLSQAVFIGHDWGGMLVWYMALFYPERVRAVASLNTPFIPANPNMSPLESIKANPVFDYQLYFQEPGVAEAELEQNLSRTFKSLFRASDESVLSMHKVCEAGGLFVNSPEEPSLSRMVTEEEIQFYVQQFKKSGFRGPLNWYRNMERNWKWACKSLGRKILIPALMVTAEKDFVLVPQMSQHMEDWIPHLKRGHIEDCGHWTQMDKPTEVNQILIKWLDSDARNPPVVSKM
Method: (§1) Recombinant mouse sEH and human sEH were produced in a baculovirus expression system and purified by affinity chromatography. […] Protein concentration was quantified by using the Pierce BCA assay using Fraction V bovine serum albumin as the calibrating standard.
(§2) IC50 values were determined in one of two method. One method uses racemic 4-nitrophenyl-trans-2,3-epoxy-3-phenylpropyl carbonate as substrate. […] Assays were performed in triplicate. […] The curve was generated from at least three separate runs, each in triplicate, to obtain the standard deviation (SD) given in Table 1 thru Table 4.

human sEH [2] = target: T1, human sEH; assay: sEH inhibition, fluorescent assay with cyano(6-methoxy-naphthalen-2-yl)methyl trans-[(3-phenyloxiran-2-yl)methyl]carbonate as substrate; assay type: biochemical; details: for IC50: Table 5, fluorescent-based assay, 0.96 nM human sEH, pH 7.0, [S] = 5 μM, read-out: Human sEH IC50
Method: as §1
Enzyme activity was measured by monitoring the appearance of 6-methoxy-2-naphthaldehyde. Assays were performed in triplicate. […] IC50 values were determined by regression of at least five datum points, with a minimum of two datum points in the linear region of the curve on either side of the IC50 values. The curve was generated from at least three separate runs, each in triplicate.

Solubility in water = assay type: physicochemical; details: for solubility of adamantyl compound relative to the corresponding cyclohexyl derivative: 789 vs. 772, 790 vs. 791, 686 vs. 297
[3] = Oral treatment and pharmacokinetic study in a human subject or patient; assay type: in vivo; details: patient approaching end stage renal disease, brief oral treatment, low doses
Excerpt: The discovery of the secondary and tertiary pharmacophores has also led to the employment of combinatorial chemistry approaches for establishing a wide spectrum of compounds having sEH inhibitory activity. The polar pharmacophores divide the molecule into domains each of which can be easily manipulated by common chemical approaches in a combinatorial manner, leading to the design and confirmation of novel orally available therapeutic agents for the treatment of diseases such as hypertension and vascular inflammation. The agents of the present invention treat such diseases while simultaneously increasing sodium excretion, reducing vascular and renal inflammation, and reducing male erectile dysfunction As shown below (see Example 51 and FIG. 13), alterations in solubility, bioavailability and pharmacological properties leads to compounds that can alter the regulatory lipids of experimental animals increasing the relative amounts of epoxy arachidonate derivatives when compared either to their diol products or to the proinflammatory and hypertensive hydroxyeicosatetraenoic acids (HETEs). Since epoxy arachidonates are anti-hypertensive and anti-inflammatory, altering the lipid ratios can lead to reduced blood pressure and reduced vascular and renal inflammation.
Serial bled blood samples (3-50 μL) were collected from finger tips into 50 μL heparinized capillary tube at various time points (0.5, 1, 2, 4, 6, 12 and 24 hr) after administration. These samples were used to measure parent compounds and their metabolites using LC-MS/MS as described above for experiments with mice. Blood samples were added 400 μL of distilled water and 25 μL of internal standard (500 ng/mL CTU), and vortexed. The blood samples were then extracted with 500 μL of ethyl acetate twice and the ethyl acetate layer was dried under nitrogen. The residue was reconstituted in 25 μL of methanol, and aliquots (10 μL) were injected onto the LC-MS/MS system as described above. Biological end points came from clinical chemistry samples run at The University of California Davis Clinical Laboratory and a series of 6 inflammatory markers including C reactive protein were run blind at the University of California Davis Department of Nephrology.

[4] = Microsomal, NADPH dependent metabolic stability in rat hepatic microsomes; assay type: in vitro ADME; details: 1 μM, NADPH generating system, P450 dependent
Method: FIG. 6 is a graph illustrating the metabolic stabilities of 1-adamantyl-3-dodecyl urea (686) and 1-cyclohexyl-3-dodecyl urea (297) in rat hepatic microsomes. Microsomes were incubated with 1 μM 686 or 297 in the presence of an NADPH generating system. Data are expressed as mean±SD of triplicate experiments.
To evaluate the metabolic stability of these inhibitors, the microsomal and NADPH dependent metabolism of a number of potent sEH inhibitors was evaluated. […] The first step in the metabolic transformation of the n-alkyl to n-alkanoic acid derivatives is an NAPDH dependent process carried out by cytochrome P450 dependent omega hydroxylation in rodent and human hepatic tissue preparations (see FIG. 8). When in vivo metabolism was evaluated, evidence for the beta-oxidation of the alkanoic acid derivatives was also found (see FIG. 9).

[5] = Pharmacokinetics after oral gavage in mice; assay type: in vivo, male Swiss Webster mice
Method: Animals. Male Swiss Webster mice, 6 weeks-old, were obtained from Charles River (CA, USA). After 1-2 week acclimation period, healthy animals were assigned to study groups based on body-weight stratified randomization procedure. The body weight of animals used in all the experiments ranged from 28 g to 38 g.
Administration and measurement. Pharmacokinetic studies in mice used a 5 mg/kg dose of sEH inhibitors dissolved in corn oil and 4% DMSO administered orally. […] Then the samples were centrifuged at 6000 rpm for 5 min, and the ethyl acetate layer was dried under nitrogen. The residue was reconstituted in 25 μL of methanol, and aliquots (5 μL) were injected onto the LC-MS/MS system.
Analysis. Pharmacokinetics analysis was performed using SigmaPlot software system (SPSS science, Chicago, Ill.).

rat sEH = target: T2, rat sEH (Rattus norvegicus, UniProt P80299); assay: Relative turnover of arachidonic acid epoxides by rat renal cortex cytosol; assay type: biochemical; details: Table 19, EET mixture hydrolyzed to 30% by rat renal cortex cytosol
T2 construct: EET fatty acid was hydrolyzed to 30% by rat renal cortex cytosol; from tissue; host or cells: rat renal cortex cytosol
T2 sequence (P80299 1-554): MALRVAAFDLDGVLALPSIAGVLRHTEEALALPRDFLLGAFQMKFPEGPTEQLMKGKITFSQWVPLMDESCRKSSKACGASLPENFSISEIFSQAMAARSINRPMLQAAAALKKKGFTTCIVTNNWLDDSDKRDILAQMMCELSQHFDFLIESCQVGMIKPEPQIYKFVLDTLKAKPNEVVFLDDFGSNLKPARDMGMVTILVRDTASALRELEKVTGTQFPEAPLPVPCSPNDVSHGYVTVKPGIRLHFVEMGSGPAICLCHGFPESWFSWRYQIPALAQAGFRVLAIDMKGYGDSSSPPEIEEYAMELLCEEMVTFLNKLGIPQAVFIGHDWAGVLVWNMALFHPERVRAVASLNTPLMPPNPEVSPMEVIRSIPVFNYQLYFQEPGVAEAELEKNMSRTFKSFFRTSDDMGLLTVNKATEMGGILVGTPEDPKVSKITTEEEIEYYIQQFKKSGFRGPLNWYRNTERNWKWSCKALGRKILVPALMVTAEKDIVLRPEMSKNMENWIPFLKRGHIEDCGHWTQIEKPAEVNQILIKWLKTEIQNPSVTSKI
Method: For epoxy fatty acid hydrolysis, the soluble epoxide hydrolase prefers substrates with epoxide moieties that are more distant from the carboxyl terminal. Specifically the substrate preference decreases in the order of 14,15-EET>11,12-EET>8,9-EET>>>5,6-EET for the epoxides of arachidonic acid. Independently, the relative substrate turnover of the epoxy arachidonates were calculated at 0.1:8.1:14.3 when a 1:1:2 mixture of 8,9-, 11,12-, and 14,15-EET fatty acid was hydrolyzed to 30% by rat renal cortex cytosol. By considering the primary pharmacophore of the urea to be a transition-state analog of epoxide hydrolysis, inhibitors have now been developed which incorporate long aliphatic acids. These compounds are better substrate and transition state mimics than those incorporating shorter aliphatic acids. Accordingly, optimal soluble epoxide hydrolase inhibitors can be obtained by producing compounds with aliphatic acid substituents (i.e. a tertiary pharmacophore) which are separated from the primary pharmacophore by an equivalent distance as the terminal acid is separated from the epoxide in optimal substrates. Within the enzyme active site, epoxy fatty acids have been predicted to exist in an extended or pseudo-linear confirmation. Therefore, both the epoxy fatty acids and the aliphatic acid containing urea structures were approximated as two dimensional linear representations and measurements were made on each species. The critical measurements taken were distances (in angstroms) from the carboxylate hydroxyl to the urea carbonyl and the urea nitrogens.

Solubility in oil = assay type: physicochemical; details: Table 5
mouse sEH = target: T3, mouse sEH (Mus musculus, UniProt P34914); assay: sEH inhibition, spectrometric assay with racemic 4-nitrophenyl-trans-2,3-epoxy-3-phenylpropyl carbonate as substrate; assay type: biochemical; details: read-out: IC50 Mouse sEH
T3 construct: made in house
T3 sequence (P34914 1-554): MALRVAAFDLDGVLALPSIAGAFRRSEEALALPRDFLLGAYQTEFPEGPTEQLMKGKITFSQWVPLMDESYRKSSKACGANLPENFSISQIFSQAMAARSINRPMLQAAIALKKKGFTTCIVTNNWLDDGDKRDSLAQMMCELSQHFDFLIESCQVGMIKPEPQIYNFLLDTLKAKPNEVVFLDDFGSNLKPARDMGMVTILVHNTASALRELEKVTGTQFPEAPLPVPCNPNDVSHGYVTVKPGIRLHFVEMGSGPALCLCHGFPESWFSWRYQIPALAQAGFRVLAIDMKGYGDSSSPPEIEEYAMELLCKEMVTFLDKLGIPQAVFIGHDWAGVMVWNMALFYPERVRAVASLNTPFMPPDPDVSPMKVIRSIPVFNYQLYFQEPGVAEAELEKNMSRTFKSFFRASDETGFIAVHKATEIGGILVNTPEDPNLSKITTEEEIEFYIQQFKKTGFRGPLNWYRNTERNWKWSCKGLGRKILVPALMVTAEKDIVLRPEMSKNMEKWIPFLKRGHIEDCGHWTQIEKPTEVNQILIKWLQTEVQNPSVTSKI
Method: as §1, §2

IC50 (human sEH [1]; Table 5, spectrometric-based assay, read-out: Human sEH IC50): 210 ± 10 nM
fold decrease in inhibition potency on human sEH (human sEH [2]; 792 vs. 687, 1001, 1002 and 798 vs. the sulfonylamides): 25 fold
IC50 (human sEH [2]): 55 nM
fold better water solubility than compound 687 (Solubility in water): 2.5 fold
Solubility in water (Solubility in water; Table 5): 63 µg/mL (≈ 112 µM)
SMILES: CCCCCCCCC(NC(=O)CCCCCCCCCCCNC(=O)NC12CC3CC(CC(C3)C1)C2)C(=O)O (stereo not drawn) [Compound 1001, 2-[12-3-(Adamantan-1-yl-ureido)dodecanoylamino]decanoic acid]

metabolic stability in microsomal preparations [4]: stable
time to reach the maximum concentration [5]: 30 min
SMILES: O=C(O)CCCCCCCCCCCNC(=O)NC12CC3CC(CC(C3)C1)C2 [Compound 687, 1-(1-adamantyl)-3-(12-dodecanoic acid)urea]

IC50 (human sEH [2]): 1.9 nM
fold improvement in inhibition of the human enzyme (human sEH [2]; compared with 687 (compound 4)): about 1.5 fold
Solubility in oil (Solubility in oil): 5,000 μg/mL
SMILES: O=C(CCCCCCCCCCCNC(=O)NC12CC3CC(CC(C3)C1)C2)NS(=O)(=O)c1ccccc1 [Compound 914]

solubility of adamantyl compound relative to the corresponding cyclohexyl derivative (Solubility in water): approximately 2 ×
metabolic stability in microsomal preparations [4]: rapidly metabolized
time to reach the maximum concentration [5]: 120 min
SMILES: CCCCCCCCCCCCNC(=O)NC12CC3CC(CC(C3)C1)C2 [Compound 686, 1-adamantyl-3-dodecylurea, reference compound]

solubility of adamantyl compound relative to the corresponding cyclohexyl derivative (Solubility in water): approximately 2 ×
SMILES: CCCCCCCCCCNC(=O)NC12CC3CC(CC(C3)C1)C2 [Compound 790]

IC50 (human sEH [1]; Table 3, mean ± SD, read-out: IC50 Human sEH): 18000 ± 900 nM
IC50 (mouse sEH; Table 3, mean ± SD): 5300 ± 100 nM
SMILES: CCCCCNC(=O)OCCNC(=O)Nc1cccc(Cl)c1 [Compound 762, 1-(3-chlorophenyl)-3-(2-pentylaminocarbonyloxyethyl)urea]

IC50 (human sEH [1]; Table 8, read-out: IC50 Human sEH): 100 ± 10 nM
IC50 (mouse sEH; Table 8): 50 ± 10 nM
SMILES: C#CCCOCCOCCCCCNC(=O)NC12CC3CC(CC(C3)C1)C2 [Compound 913]

Further lines, the compound ahead of its results:

SMILES: CCCCOC(=O)CCCCCCCCCCCNC(=O)NC12CC3CC(CC(C3)C1)C2 [Compound 800, 1-(1-Adamantyl)-3-(11-butoxycarbonylundecyl)urea]
blood urea nitrogen [3]: dramatic reduction in blood urea nitrogen
serum levels of C reactive protein [3]: dramatically reduced serum levels of C reactive protein
serum profile of regulatory lipids [3]: altered the serum profile of regulatory lipids in a positive manner
systolic and diastolic blood pressure [3]: reduced systolic and diastolic blood pressure

SMILES: CCCCCC1OC1C/C=C\C/C=C\C/C=C\CCCC(=O)O (stereo not drawn) [14,15-EET]
Relative EET Turnover (rat sEH): 14.3

SMILES: CCCCC/C=C\C/C=C\CC1OC1C/C=C\CCCC(=O)O (stereo not drawn) [8,9-EET]
Relative EET Turnover (rat sEH): 1

SMILES: CCCCC/C=C\C[C@H]1O[C@H]1C/C=C\C/C=C\CCCC(=O)O [11,12-EET]
Relative EET Turnover (rat sEH): 8.1

SMILES: CCCCCOC(=O)CCCNC(=O)NC12CC3CC(CC(C3)C1)C2 [Compound 789, 1-(1-Adamantyl)-3-(3-pentoxycarbonylpropyl)urea]
solubility of adamantyl compound relative to the corresponding cyclohexyl derivative (Solubility in water): approximately 2 ×

SMILES: CCCCC/C=C\C/C=C\C/C=C\CC1OC1CCCC(=O)O (stereo not drawn) [5,6-EET]
Relative EET Turnover (rat sEH): 0.1
